Measurements as given in patent publication US11377448B2, “Crystalline sodium salt of 5-methyl-(6S)-tetrahydrofolic acid” (priority 2017, dated 2022).

Legend:
[1] = Long-term stability at 25° C./60% rh, content by HPLC; conditions: for 5-methyl-(6S)-tetrahydrofolic acid (% w/w) / Pyrazino-s-triazine derivative of 4α-hydroxy-5-methyl-THF (MeFox) (% w/w) / 5-methyl-(6S)-tetrahydrofolic acid (% rel.): 25° C./60% rh; for Pyrazino-s-triazine derivative of 4α-hydroxy-5-methyl-THF (MeFox) (% w/w): major degradation product; for 5-methyl-(6S)-tetrahydrofolic acid (% rel.): relative to initial value
Experimental: (§1) Amorphous monosodium salt of 5-methyl-(6S)-tetrahydrofolic acid prepared according to Reference Example 6, crystalline calcium salt of 5-methyl-(6S)-tetrahydrofolic acid, prepared according to literature procedures (EP 1 044 975 B1) and crystalline sodium salt of 5-methyl-(6S)-tetrahydrofolic acid, prepared as disclosed in Example 1, were stored at 25° C./60% rh. The content of 5-methyl-(6S)-tetrahydrofolic acid remaining in the samples was measured by HPLC at periodic intervals (% w/w). The content of 5-methyl-(6S)-tetrahydrofolic acid remaining was also compared to the initial value at the time of preparation (% rel.). Additionally the content of the pyrazino-s-triazine derivative of 4α-hydroxy-5-methyl-THF (MeFox), a major degradation product, was measured by HPLC at periodic intervals and disclosed as absolute values (% w/w).

[2] = Long-term stability at 40° C./75% rh, content by HPLC; format: physicochemical; conditions: for Pyrazino-s-triazine derivative of 4α-hydroxy-5-methyl-THF (MeFox) (% w/w): major degradation product; for 5-methyl-(6S)-tetrahydrofolic acid (% rel.): relative to initial value
Experimental: as §1, with “40° C./75%” for “25° C./60%”, “sample” for “samples”

[3] = purified/de-ionized water, room temperature, agitated and briefly sonicated
Experimental: The measurement of the kinetic solubility was conducted as described in the experimental part.
50 mg of crystalline sodium salt of 5-methyl-(6S)-tetrahydrofolic acid (according to Example 1) is weighed into a 4 ml glass vial with screw cap. Then 0.5 ml of purified/de-ionized water is added.
2.535 ml of purified/de-ionized water is added to the solid using an adjustable volumetric pipette. The mixture is vigorously agitated at room temperature and briefly sonicated.

| SMILES | 5-methyl-(6S)-tetrahydrofolic acid (% w/w) ([1]; 0 months) | Pyrazino-s-triazine derivative of 4α-hydroxy-5-methyl-THF (MeFox) (% w/w) ([1]; 0 months) | 5-methyl-(6S)-tetrahydrofolic acid (% rel.) ([1]; 0 months) | 5-methyl-(6S)-tetrahydrofolic acid (% w/w) ([1]; 3 months) | Pyrazino-s-triazine derivative of 4α-hydroxy-5-methyl-THF (MeFox) (% w/w) ([1]; 3 months) | 5-methyl-(6S)-tetrahydrofolic acid (% rel.) ([1]; 3 months) | 5-methyl-(6S)-tetrahydrofolic acid (% w/w) ([1]; 6 months) | Pyrazino-s-triazine derivative of 4α-hydroxy-5-methyl-THF (MeFox) (% w/w) ([1]; 6 months) | 5-methyl-(6S)-tetrahydrofolic acid (% rel.) ([1]; 6 months) | 5-methyl-(6S)-tetrahydrofolic acid (% w/w) ([2]; 0 months) | Pyrazino-s-triazine derivative of 4α-hydroxy-5-methyl-THF (MeFox) (% w/w) ([2]; 0 months) | 5-methyl-(6S)-tetrahydrofolic acid (% rel.) ([2]; 0 months) | 5-methyl-(6S)-tetrahydrofolic acid (% w/w) ([2]; 3 months) | Pyrazino-s-triazine derivative of 4α-hydroxy-5-methyl-THF (MeFox) (% w/w) ([2]; 3 months) | 5-methyl-(6S)-tetrahydrofolic acid (% rel.) ([2]; 3 months) | solubility (kinetic solubility) in water [3] | 5-methyl-(6S)-tetrahydrofolic acid (% w/w) ([1]; 9 months) | Pyrazino-s-triazine derivative of 4α-hydroxy-5-methyl-THF (MeFox) (% w/w) ([1]; 9 months) | 5-methyl-(6S)-tetrahydrofolic acid (% rel.) ([1]; 9 months) | 5-methyl-(6S)-tetrahydrofolic acid (% w/w) ([2]; 6 months) | further results |
| --- | --- | --- | --- | --- | --- | --- | --- | --- | --- | --- | --- | --- | --- | --- | --- | --- | --- | --- | --- | --- | --- |
| CN1c2c(nc(N)[nH]c2=O)NC[C@@H]1CNc1ccc(C(=O)N[C@@H](CCC(=O)[O-])C(=O)O)cc1.[Na+] [5-methyl-(6S)-tetrahydrofolic acid monosodium salt] | 84.9 | 0.43 | 100.0 | 60.6 | 2.60 | 71.3 | 63.2 | 2.75 | 74.5 | 84.9 | 0.43 | 100.0 | 61.6 | 2.79 | 72.6 |  |  |  |  |  |  |
| CN1c2c([nH]c(N)nc2=O)NC[C@@H]1CNc1ccc(C(=O)N[C@@H](CCC(=O)[O-])C(=O)[O-])cc1.[Ca+2] [calcium salt of 5-methyl-(6S)-tetrahydrofolic acid] | 80.7 | 0.20 | 100.0 | 79.0 | 0.84 | 97.9 | 77.7 | 0.90 | 96.3 | 80.7 | 0.20 | 100.0 | 78.5 | 1.01 | 97.2 | smaller than 10 mg per 1 ml of water | 78.5 | 0.85 | 97.3 | 78.0 | 5-methyl-(6S)-tetrahydrofolic acid (% w/w) ([1]; 12 months): 77.9 % w/w; Pyrazino-s-triazine derivative of 4α-hydroxy-5-methyl-THF (MeFox) (% w/w) ([1]; 12 months): 0.86 % w/w; 5-methyl-(6S)-tetrahydrofolic acid (% rel.) ([1]; 12 months): 96.5 % rel.; Pyrazino-s-triazine derivative of 4α-hydroxy-5-methyl-THF (MeFox) (% w/w) ([2]; 6 months): 0.96 % w/w; 5-methyl-(6S)-tetrahydrofolic acid (% rel.) ([2]; 6 months): 96.6 % rel.; 5-methyl-(6S)-tetrahydrofolic acid (% w/w) ([2]; 9 months): 78.8 % w/w; Pyrazino-s-triazine derivative of 4α-hydroxy-5-methyl-THF (MeFox) (% w/w) ([2]; 9 months): 0.93 % w/w; 5-methyl-(6S)-tetrahydrofolic acid (% rel.) ([2]; 9 months): 97.6 % rel.; 5-methyl-(6S)-tetrahydrofolic acid (% w/w) ([2]; 12 months): 77.8 % w/w; Pyrazino-s-triazine derivative of 4α-hydroxy-5-methyl-THF (MeFox) (% w/w) ([2]; 12 months): 0.95 % w/w; 5-methyl-(6S)-tetrahydrofolic acid (% rel.) ([2]; 12 months): 96.3 % rel. |
| CN1c2c(nc(N)[nH]c2=O)NC[C@@H]1CNc1ccc(C(=O)N[C@@H](CCC(=O)[O-])C(=O)[O-])cc1.[Na+].[Na+] [sodium salt of 5-methyl-(6S)-tetrahydrofolic acid] | 82.3 | 0.07 | 100.0 | 80.0 | 1.01 | 97.3 | 78.6 | 1.31 | 95.5 | 82.3 | 0.07 | 100.0 | 78.6 | 1.52 | 95.6 | greater than 100 mg per 1 ml of water | 74.7 | 1.42 | 90.8 | 77.3 | stability over a long period of time compared to the crystalline calcium salt ([1]; summary of Tables 1 to 4 (25° C./60% rh and 40° C./75% rh)): comparable stability; Pyrazino-s-triazine derivative of 4α-hydroxy-5-methyl-THF (MeFox) (% w/w) ([2]; 6 months): 1.69 % w/w; 5-methyl-(6S)-tetrahydrofolic acid (% rel.) ([2]; 6 months): 94.0 % rel.; 5-methyl-(6S)-tetrahydrofolic acid (% w/w) ([2]; 9 months): 77.9 % w/w; Pyrazino-s-triazine derivative of 4α-hydroxy-5-methyl-THF (MeFox) (% w/w) ([2]; 9 months): 1.51 % w/w; 5-methyl-(6S)-tetrahydrofolic acid (% rel.) ([2]; 9 months): 94.7 % rel. |
